In patent publication US12655110B2, “Method of producing a crystalline form of sodium 2-[(4S)-8-fluoro-2-[4-(3- methoxyphenyl)piperazin-1-yl]-3-[2-methoxy-5-(trifluoromethyl)phenyl]-4H-quinazoline-4-yl]acetate trihydrate” (A1C246 AG & CO. KG, priority 2020, dated 2026):

Tests used:
Assay type in all cases: physicochemical
Hygroscopicity (DVS) = conditions: for PXRD after DVS experiment (solid form): after hygroscopicity (DVS) experiment
[1] = Solid form stability in a drying process; conditions: drying process (>60° C.)
[2] = Thermogravimetric analysis (TGA), decomposition; conditions: heated under nitrogen at 10° C./min from 30° C. to 300° C.
Procedure: Thermogravimetric analysis (TGA): Thermogravimetric analyses were recorded in a Mettler Toledo TGA/SDTA851 with a balance MT1 type. Approximately 3-4 mg of sample were weighed (using a MX5 Mettler Toledo microbalance) into 40 μL aluminium crucibles with a pinhole lid and heated under nitrogen (10 mL/min) at 10° C./min from 30° C. to 300° C. Programs used: Data collection and evaluation with software STARe.

SMILES | Hygroscopicity (DVS): water adsorption (Hygroscopicity (DVS); 10-80% RH) | Hygroscopicity (DVS): water adsorption (Hygroscopicity (DVS); 10-90% RH) | PXRD after DVS experiment (solid form) (Hygroscopicity (DVS)) | Solid form change in a drying process [1] | TGA: decomposition occurs at [2]
CCO.COc1cccc(N2CCN(C3=Nc4c(F)cccc4[C@H](CC(=O)[O-])N3c3cc(C(F)(F)F)ccc3OC)CC2)c1.O.[Na+] [Ethanol/Water Solvate, sodium 2-[(4S)-8-fluoro-2-[4-(3-methoxyphenyl)piperazin-1-yl]-3-[2-methoxy-5-(trifluoromethyl)phenyl]-4H-quinazolin-4-yl]acetate ethanol monohydrate] | 5.3% water adsorption (10-80% RH) | 3.2% water adsorption (10-90% RH) | PXRD after experiment: trihydrate | The solid turns into the amorphous | Decomposition occurs at ca. 250 °C
COc1cccc(N2CCN(C3=Nc4c(F)cccc4[C@H](CC(=O)O)N3c3cc(C(F)(F)F)ccc3OC)CC2)c1 [Trihydrate, sodium 2-[(4S)-8-fluoro-2-[4-(3-methoxyphenyl)piperazin-1-yl]-3-[2-methoxy-5-(trifluoromethyl)phenyl]-4H-quinazolin-4-yl]acetate trihydrate] | 4.1% water adsorption (10-80% RH) | 8.6% water adsorption (10-90% RH) | No PXRD changes after experiment | The solid turns into the amorphous | Decomposition occurs at ca. 250 °C
